Measured values published in patent publication US11072634B2, “Inhibitors of transglutaminases” (Zedira GmbH, priority 2016, dated 2021).

Experiments:
[1] = test system: Htt-exon1-97Q transfected N2a-cells; assay: ELISA of huntingtin and isopeptide bonds in SDS-soluble and formic acid soluble cell extracts; format: cell-based, mouse; settings: N2a Htt-exon1-97Q, 150 or 300 μM, both extracts
Experimental: A) Detection of huntingtin (htt) in an ELISA-Assay. Microtiter plate wells were coated with SDS-soluble and formic acid solubilized extracts of Htt-exon1-97Q transfected N2a-cells grown in the presence of 150 and 300 μM TG2-inhibitor E22. Anti-Htt-antibody 1C2 (1:250, Millipore, MAB1574) was used as detection antibody, followed by a conventional ELISA-protocol.
B) Detection of isopeptide bonds in an ELISA-Assay. Microtiter plate wells were coated with SDS-soluble and formic acid solubilized extracts of Htt-exon1-97Q transfected N2a-cells grown in the presence of 150 and 300 μM TG2-inhibitor E22. Antibody A023 (1:200, Zedira) recognizing N^ε-(γ-L-glutamyl)-L-lysine-isopeptide was used as detection antibody, followed by a conventional ELISA-protocol. […]
SDS-soluble and formic acid soluble extracts were used subsequently for coating of 96-well micro-titer-plates. […] Extinction was measured at 450 nm in a plate reader device.
In order to analyze the effect of E22 on huntingtin aggregation and cross-linking, Htt-exon1-97Q transfected N2a-cells were grown in presence of 150 or 300 μM TG2-blacker E22. SDS-soluble and formic acid soluble extracts were generated and huntingtin and cross-links (isopeptide bonds) were determined in an ELISA-format as described above.

TG2 [2] = target: T1, TG2 (Homo sapiens, UniProt P21980); assay: Transglutaminase activity of homogenates of LPS-stimulated BEAS-2B cells; format: cell-based; settings: 0-200 μM
T1 sequence (P21980 1-687): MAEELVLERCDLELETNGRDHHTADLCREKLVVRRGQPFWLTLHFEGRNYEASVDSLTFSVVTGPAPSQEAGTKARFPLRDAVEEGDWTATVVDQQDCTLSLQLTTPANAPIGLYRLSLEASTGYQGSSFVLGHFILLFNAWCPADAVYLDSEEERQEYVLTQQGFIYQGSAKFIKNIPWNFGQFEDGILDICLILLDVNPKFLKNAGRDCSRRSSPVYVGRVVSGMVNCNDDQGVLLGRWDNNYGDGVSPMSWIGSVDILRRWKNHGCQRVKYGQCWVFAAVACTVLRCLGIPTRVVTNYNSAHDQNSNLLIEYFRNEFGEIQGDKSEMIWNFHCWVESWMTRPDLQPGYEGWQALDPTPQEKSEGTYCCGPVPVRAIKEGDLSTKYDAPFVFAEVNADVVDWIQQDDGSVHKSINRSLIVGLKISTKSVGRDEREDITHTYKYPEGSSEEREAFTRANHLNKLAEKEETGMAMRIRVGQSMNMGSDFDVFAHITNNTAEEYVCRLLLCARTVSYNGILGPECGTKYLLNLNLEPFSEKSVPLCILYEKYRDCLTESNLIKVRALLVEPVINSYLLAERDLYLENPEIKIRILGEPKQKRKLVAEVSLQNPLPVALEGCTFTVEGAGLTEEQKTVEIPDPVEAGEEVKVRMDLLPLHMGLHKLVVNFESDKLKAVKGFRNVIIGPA
Experimental: A) Transglutaminase activity of homogenates from BEAS-2B-cell grown in the presence of 0-200 μM E22 and stimulated with LPS determined by TG2-selective Tissue Transglutaminase Pico-Assay Kit (#M003, Zedira, Darmstadt, Germany) according to the manufacturer's instructions.
Extracellular matrix deposition is a hallmark in pulmonary fibrosis. The BEAS-2B cell line is derived from normal human bronchial epithelium.
BEAS-2B cells were grown at 37° C. and 5% CO2 in 25 mM HEPES-buffered M199-medium (Merck, Darmstadt) containing 10% FBS, […], 2 mM glutamine, 100 U/ml penicillin (supplemented with […] apotransferrin, 20 ng/ml human epidermal growth factor (EGF), […] insulin, and 0.361 mg/ml hydrocortisone). For the induction of airway fibrosis by epithelial-to-mesenchymal transition (EMT), cells were seeded at 80% confluence on six-well plates. After one day cultivation 4 μg/mL LPS as well as 0 μM, 100 μM or 200 μM E22 were added and then incubated for further 72 h.

TG2 [3] = target: T1, TG2; assay: Transglutaminase activity of homogenates of LX-2 cells; format: cell-based; settings: LX-2, 100 μM, 12 days; read-out: Transglutaminase activity, of the inhibitor free control
Experimental: A) Transglutaminase activity of homogenates from LX-2-cells grown in standard plastic 6-well plates in the presence of 0-200 μM E22 determined by TG2-selective Tissue Transglutaminase Pico-Assay Kit (#M003, Zedira, Darmstadt, Germany) according to the manufacturer's instructions.
Human hepatic stellate cell line LX-2 was cultured on standard plastic 6 well plates in Dulbecco's Modified Eagle's Medium containing 100 μg/mL streptomycin, 100 units/ml penicillin, 2 mM glutamine, and 10% (v/v) fetal calf serum. E22 was added to a concentration of 0 μM, 100 μM and 200 μM. Cells were grown at 37° C. and 5% CO2 humidified atmosphere. Medium was exchanged every two days.

Transglutaminase activity (TG2 [2]): dose dependent reduction | remaining activity at 100 µM (TG2 [3]): < 5%
Compound: CCCCCNC(=O)C(=O)CC[C@H](NC(=O)[C@@H]1CCCN1C(C)=O)C(=O)Nc1cccn(CC(=O)NCC(CC)CC)c1=O [Compound E22, (S)-2-((S)-1-acetylpyrrolidine-2-carboxamido)-N1-(1-(2-(2-ethylbutylamino)-2-oxoethyl)-2-oxo-1,2-dihydropyridin-3-yl)-5-oxo-N6-pentylhexanediamide]
protein cross-linking (isopeptide bonds) [1]: reduces protein cross-linking in a dose dependent manner
